Measurements from US20070049564A1 (Wyeth, priority 2005, published 2007).
Converted amounts (≈) assume the structure as drawn. Where two headings read alike, the source gives them in different places. Each block holds one compound with its values, some of them ahead of it.

What was measured:
[1] = tested on: S. aureus GC 1131; test: MIC, broth microdilution; settings: Staphylococcus aureus
[2] = tested on: E. coli GC 2272; test: MIC, broth microdilution; settings: Escherichia coli
[3] = tested on: E. faecalis GC 2242; test: MIC, broth microdilution; settings: Enterococcus faecalis
[4] = tested on: Staph. aureus Smith; test: In vivo activity (oral, iv; ED50) against Staph. aureus Smith in mice
[5] = tested on: E. coli GC 4559; test: MIC, broth microdilution; settings: Escherichia coli
[6] = tested on: E. coli GC 2235; test: MIC, broth microdilution; settings: Escherichia coli
[7] = tested on: S. pneumoniae* GC 4465; test: MIC, broth microdilution; settings: Streptococcus pneumoniae
[8] = tested on: S. aureus GC 6467; test: MIC, broth microdilution; settings: Staphylococcus aureus
[9] = tested on: S. pneumoniae+ GC 4465; test: MIC, broth microdilution; settings: Streptococcus pneumoniae
[10] = tested on: S. typhimurium GC 2172; test: MIC, broth microdilution; settings: Salmonella enterica, TYPHIMURIUM
[11] = tested on: S. agalactiae GC 4564; test: MIC, broth microdilution; settings: Streptococcus agalactiae
[12] = tested on: S. epidermidis GC 4935; test: MIC, broth microdilution; settings: Staphylococcus epidermidis
[13] = tested on: E. coli GC 6465; test: MIC, broth microdilution; settings: Escherichia coli
[14] = tested on: E. coli GC 4560; test: MIC, broth microdilution; settings: Escherichia coli
[15] = tested on: S. aureus GC 1079; test: MIC, broth microdilution; settings: Staphylococcus aureus
[16] = tested on: E. coli GC 1073; test: MIC, broth microdilution; settings: Escherichia coli
[17] = tested on: E. faecalis GC 4555; test: MIC, broth microdilution; settings: Enterococcus faecalis
[18] = tested on: E. faecalis GC 2267; test: MIC, broth microdilution; settings: Enterococcus faecalis
[19] = tested on: c. albicans GC 3066; test: MIC, broth microdilution; settings: for MIC: Candida albicans, GC3066, read-out: MINIMAL INHIBITORY CONCENTRATION MIC; for MINIMAL INHIBITORY CONCENTRATION MIC: pre-incubated in Water
[20] = tested on: S. aureus GC 4536; test: MIC, broth microdilution; settings: Staphylococcus aureus
[21] = GC1131, read-out: MINIMAL INHIBITORY CONCENTRATION MIC, pre-incubated in Mouse Serum
[22] = GC1131, read-out: MINIMAL INHIBITORY CONCENTRATION MIC, pre-incubated in Water
[23] = GC2272, read-out: MINIMAL INHIBITORY CONCENTRATION MIC, pre-incubated in Mouse Serum
[24] = GC2272, read-out: MINIMAL INHIBITORY CONCENTRATION MIC, pre-incubated in Water
[25] = GC2242, read-out: MINIMAL INHIBITORY CONCENTRATION MIC, pre-incubated in Mouse Serum
[26] = GC2242, read-out: MINIMAL INHIBITORY CONCENTRATION MIC, pre-incubated in Water
[27] = Staphylococcus aureus, in Mus musculus, po, read-out: ED50 Staph Smith SOD
[28] = iv, read-out: ED50 Staph Smith SIV
[29] = GC4559, read-out: MINIMAL INHIBITORY CONCENTRATION MIC, pre-incubated in Mouse Serum
[30] = GC4559, read-out: MINIMAL INHIBITORY CONCENTRATION MIC, pre-incubated in Water
[31] = GC2235, read-out: MINIMAL INHIBITORY CONCENTRATION MIC, pre-incubated in Mouse Serum
[32] = GC2235, read-out: MINIMAL INHIBITORY CONCENTRATION MIC, pre-incubated in Water
[33] = read-out: MINIMAL INHIBITORY CONCENTRATION MIC, pre-incubated in Mouse Serum
[34] = read-out: MINIMAL INHIBITORY CONCENTRATION MIC, pre-incubated in Water
[35] = GC6467, read-out: MINIMAL INHIBITORY CONCENTRATION MIC, pre-incubated in Mouse Serum
[36] = GC6467, read-out: MINIMAL INHIBITORY CONCENTRATION MIC, pre-incubated in Water
[37] = GC4564, read-out: MINIMAL INHIBITORY CONCENTRATION MIC, pre-incubated in Mouse Serum
[38] = GC4564, read-out: MINIMAL INHIBITORY CONCENTRATION MIC, pre-incubated in Water
[39] = GC4935, read-out: MINIMAL INHIBITORY CONCENTRATION MIC, pre-incubated in Mouse Serum
[40] = GC4935, read-out: MINIMAL INHIBITORY CONCENTRATION MIC, pre-incubated in Water
[41] = GC6465, read-out: MINIMAL INHIBITORY CONCENTRATION MIC, pre-incubated in Mouse Serum
[42] = GC6465, read-out: MINIMAL INHIBITORY CONCENTRATION MIC, pre-incubated in Water
[43] = GC4560, read-out: MINIMAL INHIBITORY CONCENTRATION MIC, pre-incubated in Mouse Serum
[44] = GC4560, read-out: MINIMAL INHIBITORY CONCENTRATION MIC, pre-incubated in Water
[45] = GC1079, read-out: MINIMAL INHIBITORY CONCENTRATION MIC, pre-incubated in Mouse Serum
[46] = GC1079, read-out: MINIMAL INHIBITORY CONCENTRATION MIC, pre-incubated in Water
[47] = GC1073, read-out: MINIMAL INHIBITORY CONCENTRATION MIC, pre-incubated in Mouse Serum
[48] = GC1073, read-out: MINIMAL INHIBITORY CONCENTRATION MIC, pre-incubated in Water
[49] = GC4555, read-out: MINIMAL INHIBITORY CONCENTRATION MIC, pre-incubated in Mouse Serum
[50] = GC4555, read-out: MINIMAL INHIBITORY CONCENTRATION MIC, pre-incubated in Water
[51] = GC2267, read-out: MINIMAL INHIBITORY CONCENTRATION MIC, pre-incubated in Mouse Serum
[52] = GC2267, read-out: MINIMAL INHIBITORY CONCENTRATION MIC, pre-incubated in Water
[53] = GC4536, read-out: MINIMAL INHIBITORY CONCENTRATION MIC, pre-incubated in Mouse Serum
[54] = GC4536, read-out: MINIMAL INHIBITORY CONCENTRATION MIC, pre-incubated in Water

MIC [1, 21]: 0.5 µg/mL (≈ 0.662 µM)
MIC [1, 22]: 0.5 µg/mL (≈ 0.662 µM)
MIC [2, 23]: 2 µg/mL (≈ 2.65 µM)
MIC [2, 24]: 64 µg/mL (≈ 84.7 µM)
MIC [3, 25]: 2 µg/mL (≈ 2.65 µM)
MIC [3, 26]: 2 µg/mL (≈ 2.65 µM)
MIC [5, 29]: 2 µg/mL (≈ 2.65 µM)
MIC [5, 30]: > 64 µg/mL
MIC [6, 31]: 1 µg/mL (≈ 1.32 µM)
MIC [6, 32]: 32 µg/mL (≈ 42.3 µM)
MIC [7, 33]: 0.12 µg/mL (≈ 0.159 µM)
MIC [7, 34]: 0.25 µg/mL (≈ 0.331 µM)
MIC [8, 35]: 2 µg/mL (≈ 2.65 µM)
MIC [8, 36]: 2 µg/mL (≈ 2.65 µM)
MIC [9, 33]: 4 µg/mL (≈ 5.29 µM)
MIC [9, 34]: 4 µg/mL (≈ 5.29 µM)
MIC [10, 33]: 8 µg/mL (≈ 10.6 µM)
MIC [10, 34]: > 64 µg/mL
MIC [11, 37]: 0.5 µg/mL (≈ 0.662 µM)
MIC [11, 38]: 0.5 µg/mL (≈ 0.662 µM)
MIC [12, 39]: 1 µg/mL (≈ 1.32 µM)
MIC [12, 40]: 2 µg/mL (≈ 2.65 µM)
MIC [13, 41]: 8 µg/mL (≈ 10.6 µM)
MIC [13, 42]: > 64 µg/mL
MIC [14, 43]: 0.5 µg/mL (≈ 0.662 µM)
MIC [14, 44]: 2 µg/mL (≈ 2.65 µM)
MIC [15, 45]: 1 µg/mL (≈ 1.32 µM)
MIC [15, 46]: 2 µg/mL (≈ 2.65 µM)
MIC [16, 47]: 2 µg/mL (≈ 2.65 µM)
MIC [16, 48]: > 64 µg/mL
MIC [17, 49]: 1 µg/mL (≈ 1.32 µM)
MIC [17, 50]: 2 µg/mL (≈ 2.65 µM)
MIC [18, 51]: 2 µg/mL (≈ 2.65 µM)
MIC [18, 52]: 4 µg/mL (≈ 5.29 µM)
MIC [19]: > 64 µg/mL
MINIMAL INHIBITORY CONCENTRATION MIC [19]: >64 UG/ML
MIC [20, 53]: 0.5 µg/mL (≈ 0.662 µM)
MIC [20, 54]: 0.5 µg/mL (≈ 0.662 µM)
SMILES: CCCN(CC(=O)Nc1cc(N(C)C)c2c(c1O)C(=O)C1=C(O)[C@]3(O)C(=O)C(C(N)=O)=C(O)[C@@H](N(C)C)[C@@H]3C[C@@H]1C2)C(=O)OCOC(=O)c1cccs1 [Example 25, ({[(2-{[(5aR,6aS,7S,10aS)-9-(aminocarbonyl)-4,7-bis(dimethylamino)-1,8,10a,11-tetrahydroxy-10,12-dioxo-5,5a,6,6a,7,10,10a,12-octahydrotetracen-2-yl]amino}-2-oxoethyl)(propyl)amino]carbonyl}oxy)methyl thiophene-2-carboxylate]
ED50 [4, 27]: 15.7 mg/kg
ED50 [4, 28]: 0.56 mg/kg

MIC [1, 21]: 0.5 µg/mL (≈ 0.643 µM)
MIC [1, 22]: 0.5 µg/mL (≈ 0.643 µM)
MIC [2, 23]: 2 µg/mL (≈ 2.57 µM)
MIC [2, 24]: 64 µg/mL (≈ 82.3 µM)
MIC [3, 25]: 2 µg/mL (≈ 2.57 µM)
MIC [3, 26]: 4 µg/mL (≈ 5.14 µM)
MIC [5, 29]: 2 µg/mL (≈ 2.57 µM)
MIC [5, 30]: > 64 µg/mL
MIC [6, 31]: 1 µg/mL (≈ 1.29 µM)
MIC [6, 32]: 64 µg/mL (≈ 82.3 µM)
MIC [7, 33]: 0.25 µg/mL (≈ 0.321 µM)
MIC [7, 34]: 0.25 µg/mL (≈ 0.321 µM)
MIC [8, 35]: 1 µg/mL (≈ 1.29 µM)
MIC [8, 36]: 4 µg/mL (≈ 5.14 µM)
MIC [9, 33]: 4 µg/mL (≈ 5.14 µM)
MIC [9, 34]: 4 µg/mL (≈ 5.14 µM)
MIC [10, 33]: 16 µg/mL (≈ 20.6 µM)
MIC [10, 34]: > 64 µg/mL
MIC [11, 37]: 1 µg/mL (≈ 1.29 µM)
MIC [11, 38]: 2 µg/mL (≈ 2.57 µM)
MIC [12, 39]: 1 µg/mL (≈ 1.29 µM)
MIC [12, 40]: 2 µg/mL (≈ 2.57 µM)
MIC [13, 41]: 8 µg/mL (≈ 10.3 µM)
MIC [13, 42]: > 64 µg/mL
MIC [14, 43]: 0.5 µg/mL (≈ 0.643 µM)
MIC [14, 44]: 8 µg/mL (≈ 10.3 µM)
MIC [15, 45]: 1 µg/mL (≈ 1.29 µM)
MIC [15, 46]: 2 µg/mL (≈ 2.57 µM)
MIC [16, 47]: 2 µg/mL (≈ 2.57 µM)
MIC [16, 48]: > 64 µg/mL
MIC [17, 49]: 1 µg/mL (≈ 1.29 µM)
MIC [17, 50]: 4 µg/mL (≈ 5.14 µM)
MIC [18, 51]: 2 µg/mL (≈ 2.57 µM)
MIC [18, 52]: 4 µg/mL (≈ 5.14 µM)
MIC [19]: > 64 µg/mL
MINIMAL INHIBITORY CONCENTRATION MIC [19]: >64 UG/ML
MIC [20, 53]: 0.25 µg/mL (≈ 0.321 µM)
MIC [20, 54]: 0.5 µg/mL (≈ 0.643 µM)
SMILES: CCCN(CC(=O)Nc1cc(N(C)C)c2c(c1O)C(=O)C1=C(O)[C@]3(O)C(=O)C(C(N)=O)=C(O)[C@@H](N(C)C)[C@@H]3C[C@@H]1C2)C(=O)OCOC(=O)c1cc(C)cc(C)c1 [Example 26, ({[(2-{[(5aR,6aS,7S,10aS)-9-(aminocarbonyl)-4,7-bis(dimethylamino)-1,8,10a,11-tetrahydroxy-10,12-dioxo-5,5a,6,6a,7,10,10a,12-octahydrotetracen-2-yl]amino}-2-oxoethyl)(propyl)amino]carbonyl}oxy)methyl 3,5-dimethylbenzoate]
ED50 ([4]; Staphylococcus aureus, in Mus musculus, iv, read-out: ED50 SIV (Staph aureus Smith)): 0.43 mg/kg
ED50 ([4]; Staphylococcus aureus, in Mus musculus, po, read-out: ED50 SOD (Staph aureus Smith)): 8.79 mg/kg
ED50 [4, 27]: 8.79 mg/kg
ED50 [4, 28]: 0.43 mg/kg
